Data published in ChEMBL document CHEMBL1134478, “Recent developments in the biology and medicinal chemistry of potassium channel modulators: update from a decade of progress” (J Med Chem, 2001).
The source made the active and inactive calls. The rule behind the calls is not given here.

How the values were obtained:
Rattus norvegicus [1] = species on record: Rattus norvegicus; test: The percentage of residual insulin release at 50 uM of compound in the presence of glucose on rat pancreatic beta cells; assay type: functional
Rattus norvegicus [2] = species on record: Rattus norvegicus; test: The effective dose for relaxation was measured on rat aorta rings; assay type: functional; settings: read-out: ED50 (the source's name)
Cavia porcellus [3] = species on record: Cavia porcellus; test: The inhibitory concentration for 50% was measured on guinea pig bladder strips; assay type: functional
Rattus norvegicus [4] = species on record: Rattus norvegicus; test: In vitro inhibitory concentration for 50% vasorelaxant effect was measured on rat aorta strips; assay type: functional
Rattus norvegicus [5] = species on record: Rattus norvegicus; test: The effective concentration (EC25) was measured for anti-ischemic activity on perfused rat hearts; assay type: functional
Rattus norvegicus [6] = species on record: Rattus norvegicus; test: The inhibitory concentration (IC50) for vasorelaxation on rat aorta; assay type: functional
[7] = EC25 and IC50 Ratio of the compound; assay type: functional; design: reference not given here
[8] = Inhibition of glyburide binding to K-ATP potassium channel
Cavia porcellus [9] = species on record: Cavia porcellus; test: The inhibitory concentration was measured on guinea pig cardiomyocytes; assay type: functional
[10] = target: T1, Sulfonylurea receptor 2, Kir6.2 (Homo sapiens, UniProt O60706+Q14654); test: Inhibition of human SUR2A/Kir6.2 expressed in Xenopus oocytes; assay type: cell-based, Oocyte
T1 sequence (Q14654 whole entry): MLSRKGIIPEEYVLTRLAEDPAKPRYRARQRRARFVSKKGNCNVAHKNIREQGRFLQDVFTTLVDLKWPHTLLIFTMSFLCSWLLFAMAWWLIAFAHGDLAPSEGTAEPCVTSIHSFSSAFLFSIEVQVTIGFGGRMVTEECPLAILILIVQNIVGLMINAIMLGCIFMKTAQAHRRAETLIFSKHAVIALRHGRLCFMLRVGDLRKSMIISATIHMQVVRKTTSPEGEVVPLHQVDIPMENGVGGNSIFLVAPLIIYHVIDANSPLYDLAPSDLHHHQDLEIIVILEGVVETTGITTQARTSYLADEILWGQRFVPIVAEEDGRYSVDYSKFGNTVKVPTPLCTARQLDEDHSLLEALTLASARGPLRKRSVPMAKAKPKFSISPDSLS
T1 sequence (O60706 whole entry): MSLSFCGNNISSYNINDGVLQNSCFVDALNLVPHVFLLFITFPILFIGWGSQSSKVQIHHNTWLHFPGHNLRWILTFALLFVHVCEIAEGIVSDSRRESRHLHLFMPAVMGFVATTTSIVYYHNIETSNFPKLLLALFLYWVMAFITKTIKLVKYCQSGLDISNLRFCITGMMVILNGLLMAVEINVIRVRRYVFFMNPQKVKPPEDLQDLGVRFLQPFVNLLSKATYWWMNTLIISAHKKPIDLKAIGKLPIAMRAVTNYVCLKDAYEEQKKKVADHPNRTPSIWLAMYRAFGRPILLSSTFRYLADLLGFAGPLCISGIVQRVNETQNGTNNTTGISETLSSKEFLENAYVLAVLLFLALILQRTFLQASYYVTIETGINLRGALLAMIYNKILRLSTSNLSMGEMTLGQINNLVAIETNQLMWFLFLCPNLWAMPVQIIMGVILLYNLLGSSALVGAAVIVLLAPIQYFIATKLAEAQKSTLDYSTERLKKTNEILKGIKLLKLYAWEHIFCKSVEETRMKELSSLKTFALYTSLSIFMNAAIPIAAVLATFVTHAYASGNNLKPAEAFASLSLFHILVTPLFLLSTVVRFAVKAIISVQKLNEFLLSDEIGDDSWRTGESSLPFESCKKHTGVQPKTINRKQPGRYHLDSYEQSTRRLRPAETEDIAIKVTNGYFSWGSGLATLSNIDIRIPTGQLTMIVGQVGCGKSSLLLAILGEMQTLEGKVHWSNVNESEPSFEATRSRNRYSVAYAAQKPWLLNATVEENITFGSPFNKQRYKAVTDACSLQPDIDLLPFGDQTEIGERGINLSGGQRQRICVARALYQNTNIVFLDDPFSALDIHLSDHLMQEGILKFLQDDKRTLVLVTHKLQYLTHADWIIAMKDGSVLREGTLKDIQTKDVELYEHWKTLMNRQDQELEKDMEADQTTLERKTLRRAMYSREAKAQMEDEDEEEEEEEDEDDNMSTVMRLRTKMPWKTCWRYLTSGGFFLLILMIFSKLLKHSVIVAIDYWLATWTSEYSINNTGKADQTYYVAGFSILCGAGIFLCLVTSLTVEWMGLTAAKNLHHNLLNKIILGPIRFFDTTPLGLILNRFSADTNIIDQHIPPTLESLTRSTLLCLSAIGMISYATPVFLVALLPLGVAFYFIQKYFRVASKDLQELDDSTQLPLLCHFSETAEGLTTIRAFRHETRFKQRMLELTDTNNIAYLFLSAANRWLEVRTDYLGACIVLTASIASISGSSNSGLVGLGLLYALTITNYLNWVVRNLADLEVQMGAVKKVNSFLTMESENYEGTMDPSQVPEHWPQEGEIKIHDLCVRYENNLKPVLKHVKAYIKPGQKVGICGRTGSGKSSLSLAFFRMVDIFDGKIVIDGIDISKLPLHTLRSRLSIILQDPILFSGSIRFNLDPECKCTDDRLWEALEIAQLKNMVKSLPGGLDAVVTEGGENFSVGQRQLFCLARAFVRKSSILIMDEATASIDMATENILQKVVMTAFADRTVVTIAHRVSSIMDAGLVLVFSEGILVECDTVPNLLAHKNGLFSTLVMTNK

Rattus norvegicus [11] = species on record: Rattus norvegicus; test: The inhibitory concentration was measured on the rat insulinoma cell line RIN-m5F; assay type: functional
[12] = target: T2, Small conductance calcium-activated potassium channel protein 1 (Homo sapiens, UniProt Q92952); test: Inhibition of hSK1 calcium activated potassium channel (SKCa channel)
T2 sequence (Q92952 whole entry): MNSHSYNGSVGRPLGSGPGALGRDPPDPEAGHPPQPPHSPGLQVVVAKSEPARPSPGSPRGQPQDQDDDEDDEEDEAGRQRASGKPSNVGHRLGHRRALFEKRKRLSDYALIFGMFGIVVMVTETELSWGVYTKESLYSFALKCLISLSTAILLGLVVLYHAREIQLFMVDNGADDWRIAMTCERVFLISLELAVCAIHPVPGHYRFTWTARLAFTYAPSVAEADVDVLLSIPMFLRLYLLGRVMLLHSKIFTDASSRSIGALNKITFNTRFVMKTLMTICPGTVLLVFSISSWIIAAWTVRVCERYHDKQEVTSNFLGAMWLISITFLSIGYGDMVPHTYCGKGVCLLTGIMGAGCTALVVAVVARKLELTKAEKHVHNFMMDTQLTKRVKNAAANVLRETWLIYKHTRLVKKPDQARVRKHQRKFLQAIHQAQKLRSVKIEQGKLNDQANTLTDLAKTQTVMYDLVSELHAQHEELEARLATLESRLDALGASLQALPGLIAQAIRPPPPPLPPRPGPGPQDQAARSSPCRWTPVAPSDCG

[13] = target: T3, Potassium voltage-gated channel subfamily A member 5 (Homo sapiens, UniProt P22460); test: (§1) Inhibition of voltage-gated potassium channel subunit Kv1.5; assay type: functional
T3 sequence (P22460 whole entry): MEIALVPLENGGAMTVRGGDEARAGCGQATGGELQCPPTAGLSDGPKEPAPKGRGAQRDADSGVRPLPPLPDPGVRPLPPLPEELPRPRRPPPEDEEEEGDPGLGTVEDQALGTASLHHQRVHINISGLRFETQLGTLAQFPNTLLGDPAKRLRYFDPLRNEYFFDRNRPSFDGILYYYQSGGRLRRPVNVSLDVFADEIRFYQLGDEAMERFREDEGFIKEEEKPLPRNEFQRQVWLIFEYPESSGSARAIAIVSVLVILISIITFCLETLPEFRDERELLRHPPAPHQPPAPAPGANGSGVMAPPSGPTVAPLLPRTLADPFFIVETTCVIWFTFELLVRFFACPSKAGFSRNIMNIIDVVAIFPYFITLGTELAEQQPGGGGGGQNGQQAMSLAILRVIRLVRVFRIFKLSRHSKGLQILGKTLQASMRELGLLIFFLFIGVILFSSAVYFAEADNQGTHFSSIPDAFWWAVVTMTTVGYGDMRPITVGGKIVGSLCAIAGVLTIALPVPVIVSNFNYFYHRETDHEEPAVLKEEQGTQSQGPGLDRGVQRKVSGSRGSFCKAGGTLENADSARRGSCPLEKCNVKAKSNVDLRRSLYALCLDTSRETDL

[14] = target: Sulfonylurea receptor 1, Kir6.2 (Homo sapiens, UniProt Q09428+Q14654); test: Inhibition of human SUR1/Kir6.2 expressed in CHO cells; assay type: cell-based
[15] = The inhibitory concentration for 50% was measured on the rat insulinoma cell line RIN-m5F; assay type: functional
Cavia porcellus [16] = species on record: Cavia porcellus; test: The inhibitory concentration for 50% was measured on guinea pig cardiomyocytes; assay type: functional
Rattus norvegicus [17] = species on record: Rattus norvegicus; test: Antagonistic activity in the rat thoracic aorta; assay type: functional
[18] = target: T2, Small conductance calcium-activated potassium channel protein 1; test: Inhibition of hSK1 calcium activated potassium channel (SKCa channel); Range is 1-2
Cavia porcellus [19] = species on record: Cavia porcellus; test: Relaxation of guinea pig bladder strips when contracted with 20 mM KCl; assay type: functional
[20] = Inhibition of currents and prolonged action potential duration in human atrial myocytes; assay type: functional, Cardiac atrium
[21] = target: T3, Potassium voltage-gated channel subfamily A member 5; test: as §1
[22] = In vitro reduction of glutamate release in hippocampal slices; assay type: functional, tissue-based; settings: Rattus norvegicus, Hippocampus
[23] = target: T1, Sulfonylurea receptor 2, Kir6.2; test: (§2) Inhibition of SUR2B/Kir6.2; assay type: protein-complex assay
[24] = target: T1, Sulfonylurea receptor 2, Kir6.2; test: as §2; assay type: protein-complex assay, Rattus norvegicus
Rattus norvegicus [25] = species on record: Rattus norvegicus; test: The effective concentration was measured on rat aorta strips; assay type: functional
Rattus norvegicus [26] = species on record: Rattus norvegicus; test: The inhibitory concentration for 50% was measured on rat aorta strips; assay type: functional
[27] = Inhibition of glyburide binding to K-ATP potassium channel; Inactive
[28] = Inhibition of Kir6.1/SUR1 potassium channel K-ATP; design: species or system Homo sapiens
Cavia porcellus [29] = species on record: Cavia porcellus; test: The inhibitory concentration of compound on guinea pig portal vein; assay type: functional
Cavia porcellus [30] = species on record: Cavia porcellus; test: The inhibitory concentration of compound on guinea pig bladder strips; assay type: functional
[31] = target: Voltage-gated potassium channel, IKs; KCNQ1(Kv7.1)/KCNE1(MinK) (Homo sapiens, UniProt P15382+P51787); test: Inhibition of Iks current KvLQT1 potassium channel; assay type: protein-complex assay
Chain of Voltage-gated potassium channel, IKs; KCNQ1(Kv7.1)/KCNE1(MinK) (P51787 whole entry): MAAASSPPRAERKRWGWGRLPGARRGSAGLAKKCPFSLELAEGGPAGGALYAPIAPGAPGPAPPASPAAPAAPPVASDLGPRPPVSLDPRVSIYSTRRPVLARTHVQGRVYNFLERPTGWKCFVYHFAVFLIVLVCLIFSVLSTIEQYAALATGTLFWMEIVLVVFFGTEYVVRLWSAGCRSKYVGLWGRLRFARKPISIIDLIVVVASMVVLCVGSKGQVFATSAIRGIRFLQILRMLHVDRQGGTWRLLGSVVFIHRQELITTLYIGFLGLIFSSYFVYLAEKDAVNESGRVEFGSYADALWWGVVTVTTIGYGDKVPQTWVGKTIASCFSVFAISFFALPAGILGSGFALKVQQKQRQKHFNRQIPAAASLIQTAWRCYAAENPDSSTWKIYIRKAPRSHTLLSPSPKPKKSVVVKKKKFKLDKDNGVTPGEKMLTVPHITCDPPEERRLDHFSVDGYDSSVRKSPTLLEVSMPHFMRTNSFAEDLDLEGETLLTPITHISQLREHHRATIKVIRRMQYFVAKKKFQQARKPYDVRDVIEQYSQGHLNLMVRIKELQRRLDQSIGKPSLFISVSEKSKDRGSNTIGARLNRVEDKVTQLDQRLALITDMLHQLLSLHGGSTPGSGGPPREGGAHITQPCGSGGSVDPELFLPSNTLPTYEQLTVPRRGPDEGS

[32] = target: Gardos channel, KCNN4/IK1 (Homo sapiens); test: Selectivity for gardos channel; (Gardos channel vs 2000 nM for the cardiac IKs channel).)
Cavia porcellus [33] = species on record: Cavia porcellus; test: The effective dose to inhibit 50% was measured on guinea pig; assay type: functional
Cavia porcellus [34] = species on record: Cavia porcellus; test: The effective dose to inhibit 20% was measured on guinea pig; assay type: functional
[35] = target: T3, Potassium voltage-gated channel subfamily A member 5; test: The inhibitory concentration for 50% was measured on cation flux
Rattus norvegicus [36] = species on record: Rattus norvegicus; test: Antagonistic activity (pKb) was measured in the rat thoracic aorta; assay type: functional

CC(NC1=NS(=O)(=O)c2cccnc2N1)C(C)(C)C (stereo not drawn)
Insulin release (Rattus norvegicus [1]): 98.9%
EC50 (Rattus norvegicus [2]): 7500 nM

CC(O)(C(=O)Nc1cccc2c1C(=O)c1sccc1CO2)C(F)(F)F (stereo not drawn)
IC50 (Cavia porcellus [3]): 2100 nM

CC(C)(C)O/N=C(\c1cc(Br)c(F)cc1O)c1c(O)ccc[n+]1[O-]
IC50 (Rattus norvegicus [4]): 280 nM

CC1(C)Oc2ccc(C#N)cc2[C@H](N2CCCC2=O)[C@H]1O [(-)-CROMAKALIM]
EC25 (Rattus norvegicus [5]): 8900 nM
IC50 (Rattus norvegicus [6]): 32 nM
Ratio [7]: 278

N#C/N=C(\Nc1cccnc1)NC1(c2cccc(Cl)c2)CCC1
IC50 [8]: 18 nM

CC1(C)Oc2ccc(C#N)cc2[C@@H](/N=C(\NC#N)Nc2ccc(Cl)cc2)[C@@H]1O
EC25 (Rattus norvegicus [5]): 2500 nM
Ratio [7]: 1.4

COc1ccc(Cl)cc1C(=O)NCCc1ccc(S(=O)(=O)NC(=O)NC2CCCCC2)cc1 [GLYBURIDE]
IC50 (Cavia porcellus [9]): 8 nM
IC50 [10]: 220 nM
IC50 (Rattus norvegicus [11]): 1.6 nM

c1cc2cc(c1)C[n+]1ccc(c3ccccc31)NCc1ccc(cc1)CNc1cc[n+](c3ccccc13)C2
IC50 [12]: 3 nM

O=C1NCCN1CCN1CCC(c2cn(-c3ccc(F)cc3)c3ccc(Cl)cc23)CC1 [SERTINDOLE]
IC50 [13]: 2000 nM

CC1(C)Oc2ccc(C#N)cc2[C@H](N(Cc2ncc[nH]2)c2ccc(Cl)cc2)[C@H]1O [BMS-191095]
EC25 (Rattus norvegicus [5]): 1400 nM
IC50 (Rattus norvegicus [6]): > 30000 nM
Ratio [7]: < 0.05

CNC(=S)NS(=O)(=O)c1cc(CCNC(=O)c2cc(Cl)ccc2OC)ccc1OC [CLAMIKALANT]
IC50 [14]: 8200 nM
IC50 [15]: 7500 nM
IC50 (Cavia porcellus [16]): 800 nM
IC50 [10]: 4300 nM

C=CCN(C1=NCCN1)c1c(Cl)cccc1Cl [ALINIDINE]
pKb (Rattus norvegicus [17]): 5.5

c1ccc2c(c1)c1cc[n+]2CCCCC[n+]2ccc(c3ccccc32)NCCCCCN1
IC50 [18]: 1 nM

Cc1c(-c2ccccc2F)[nH]c(N)c1C#N
IC50 (Cavia porcellus [19]): 540 nM

CCc1ccc(S(=O)(=O)N[C@@H]2c3cc(NC(=O)c4cccc(OC)c4)ccc3C[C@H]2O)cc1
Inhibition [20]: >50%
IC50 [21]: 100 nM

C[C@](O)(C(=O)Nc1cccc2c1C(=O)c1sccc1CS2(=O)=O)C(F)(F)F
IC50 (Cavia porcellus [3]): 2500 nM

CC1=Nc2ccc(Cl)cc2S(=O)(=O)N1 [DIAZOXIDE]
Insulin release (Rattus norvegicus [1]): 28.8%
EC50 (Rattus norvegicus [2]): 19300 nM

CC(C)CN(CC(C)C)S(=O)(=O)c1ccc2c(c1)[C@@H](/N=C(\NC#N)Nc1ccc(Cl)cc1)[C@H](O)C(C)(C)O2
EC25 (Rattus norvegicus [5]): 40 nM
Ratio [7]: < 0.004

COc1ccc(Cl)cc1[C@]1(F)C(=O)Nc2cc(C(F)(F)F)ccc21 [FLINDOKALNER]
IC50 [22]: 352 nM

CNC(=S)C1(C(=O)c2ccc(-n3ccnc3)cc2)CCC1
Kd [23]: 8500 nM
Kd [24]: 5200 nM
EC50 (Rattus norvegicus [25]): 5300 nM
IC50 (Rattus norvegicus [26]): 12000 nM

CC[C@@H](N/C(=N/C#N)Nc1cccnc1)c1ccccc1
NA [27]: inactive

C1CCC(/N=C(\NC23CC4CC(CC(C4)C2)C3)N2CCOCC2)CC1
IC50 [28]: 32000 nM

CC(NC1=NS(=O)(=O)c2cnccc2N1)C(C)(C)C (stereo not drawn)
Insulin release (Rattus norvegicus [1]): 7.1%
EC50 (Rattus norvegicus [2]): 154000 nM

N#Cc1cccc(C2C3=C(CCCC3=O)NC3=C2C(=O)CCC3)c1
IC50 (Cavia porcellus [29]): 750 nM
IC50 (Cavia porcellus [30]): 4200 nM

CC(NC1=NS(=O)(=O)c2cc(Cl)cnc2N1)C(C)(C)C (stereo not drawn)
Insulin release (Rattus norvegicus [1]): 41.5%
EC50 (Rattus norvegicus [2]): 2300 nM

NC(=O)C(c1ccccc1)(c1ccc(F)cc1)c1ccccc1F (stereo not drawn)
IC50 [31]: 2000 nM
IC50 [32]: 9 nM

Cc1cc(-c2ccc3c(c2)[C@@H](NC(=O)c2cccnc2)[C@H](O)C(C)(C)O3)ccn1
ED50 (Cavia porcellus [33]): 0.08 µg/kg
ED20 (Cavia porcellus [34]): 100 µg/kg

CCCCc1ccc(S(=O)(=O)N[C@@H]2c3cc(NC(=O)c4cccc(OC)c4)ccc3CC[C@H]2O)cc1
IC50 [35]: ~2900 nM
IC50 [21]: ~50 nM

Fc1ccc(CN(C2=NCCN2)c2c(Cl)cccc2Cl)cc1
pKb (Rattus norvegicus [36]): 7.1

C[C@@H](N/C(=N/C#N)Nc1cccnc1)c1ccccc1
NA [27]: inactive
